Test results published in ChEMBL document CHEMBL1145302, “Synthesis and antibacterial activity of C6-carbazate ketolides” (2006).
Values after ≈ are worked out from the molar mass of the structure shown.

Experiments:
Format in all cases: functional
Staphylococcus aureus [1] = assay: Antibacterial activity against erythromycin-susceptible Staphylococcus aureus Smith OC4172
Streptococcus pneumoniae [2] = assay: Antibacterial activity against erythromycin-resistant Streptococcus pneumoniae OC4051 containing erm(B)
Haemophilus influenzae = assay: Antibacterial activity against telithromycin-susceptible Haemophilus influenzae ATCC 49766
[3] = tested on: Staphylococcus haemolyticus; assay: Antibacterial activity against erythromycin resistant Staphylococcus haemolyticus OC3882 containing erm(C)
Streptococcus pneumoniae [4] = assay: Antibacterial activity against erythromycin-susceptible Streptococcus pneumoniae OC9132
Streptococcus pneumoniae [5] = assay: Antibacterial activity against erythromycin-resistant Streptococcus pneumoniae OC4421 containing mef(A)
Staphylococcus aureus [6] = assay: Antibacterial activity against erythromycin-susceptible Staphylococcus aureus Smith OC4172 in presence of 50% mouse serum
Staphylococcus aureus [7] = assay: Antibacterial activity against Staphylococcus aureus Smith infected in sc dosed Swiss Webster mouse septicemia model
Staphylococcus aureus [8] = assay: Antibacterial activity against Staphylococcus aureus Smith infected in orally dosed Swiss Webster mouse septicemia model; details: po

Compound | MIC (Staphylococcus aureus [1]) [µg/mL] | MIC (Streptococcus pneumoniae [2]) [µg/mL] | MIC (Haemophilus influenzae) [µg/mL] | MIC [3] [µg/mL] | MIC (Streptococcus pneumoniae [4]) [µg/mL] | MIC (Streptococcus pneumoniae [5]) [µg/mL] | MIC (Staphylococcus aureus [6]) [µg/mL] | ED50 (Staphylococcus aureus [7]) [mg/kg] | ED50 (Staphylococcus aureus [8]) [mg/kg]
CC[C@H]1OC(=O)[C@H](C)C(=O)[C@H](C)[C@@H](O[C@@H]2O[C@H](C)C[C@H](N(C)C)[C@H]2O)[C@](C)(OC(=O)NNCCc2cnc3ccccc3c2)C[C@@H](C)C(=O)[C@H](C)[C@H]2NC(=O)O[C@@]21C | 0.5 (≈ 0.616 µM) | 0.06 (≈ 0.0739 µM) | 0.5 (≈ 0.616 µM) | 0.5 (≈ 0.616 µM) | 0.03 (≈ 0.0369 µM) | 0.25 (≈ 0.308 µM) | 1 | – | –
CC[C@H]1OC(=O)[C@H](C)C(=O)[C@H](C)[C@@H](O[C@@H]2O[C@H](C)C[C@H](N(C)C)[C@H]2O)[C@](C)(OC(=O)N(C)NCCc2ccc(-c3cnccn3)cc2)C[C@@H](C)C(=O)[C@H](C)[C@H]2NC(=O)O[C@@]21C | 0.5 (≈ 0.586 µM) | 0.12 (≈ 0.141 µM) | 8 (≈ 9.38 µM) | 2 (≈ 2.34 µM) | 0.06 (≈ 0.0703 µM) | 0.5 (≈ 0.586 µM) | 2 | – | –
CC[C@H]1OC(=O)[C@H](C)C(=O)[C@H](C)[C@@H](O[C@@H]2O[C@H](C)C[C@H](N(C)C)[C@H]2O)[C@](C)(OC(=O)NN(C)CCc2cnc3ccccc3c2)C[C@@H](C)C(=O)[C@H](C)[C@H]2NC(=O)O[C@@]21C | 1 (≈ 1.21 µM) | 0.12 (≈ 0.145 µM) | 2 (≈ 2.42 µM) | 8 (≈ 9.69 µM) | 0.06 (≈ 0.0726 µM) | 0.5 (≈ 0.605 µM) | 2 | – | –
CC[C@H]1OC(=O)[C@H](C)C(=O)[C@H](C)[C@@H](O[C@@H]2O[C@H](C)C[C@H](N(C)C)[C@H]2O)[C@](C)(OC(=O)NNCCc2cccc(-c3ncccn3)c2)C[C@@H](C)C(=O)[C@H](C)[C@H]2NC(=O)O[C@@]21C | 0.25 (≈ 0.298 µM) | 0.06 (≈ 0.0715 µM) | 2 (≈ 2.38 µM) | 0.25 (≈ 0.298 µM) | 0.03 (≈ 0.0358 µM) | 0.25 (≈ 0.298 µM) | 1 | 4.3 | > 20
CC[C@H]1OC(=O)[C@H](C)C(=O)[C@H](C)[C@@H](O[C@@H]2O[C@H](C)C[C@H](N(C)C)[C@H]2O)[C@](C)(OC(=O)NN(C)CCc2ccc(-c3cnccn3)cc2)C[C@@H](C)C(=O)[C@H](C)[C@H]2NC(=O)O[C@@]21C | 0.25 (≈ 0.293 µM) | 0.06 (≈ 0.0703 µM) | 2 (≈ 2.34 µM) | 0.5 (≈ 0.586 µM) | 0.03 (≈ 0.0352 µM) | 0.25 (≈ 0.293 µM) | 0.5 | – | –
CC[C@H]1OC(=O)[C@H](C)C(=O)[C@H](C)[C@@H](O[C@@H]2O[C@H](C)C[C@H](N(C)C)[C@H]2O)[C@](C)(OC(=O)NN(C)CCCc2ccc(-c3ncccn3)cc2)C[C@@H](C)C(=O)[C@H](C)[C@H]2NC(=O)O[C@@]21C | 0.5 (≈ 0.577 µM) | 0.5 (≈ 0.577 µM) | 8 (≈ 9.23 µM) | 1 (≈ 1.15 µM) | 0.06 (≈ 0.0692 µM) | 0.5 (≈ 0.577 µM) | 1 | – | –
CC[C@H]1OC(=O)[C@H](C)C(=O)[C@H](C)[C@@H](O[C@@H]2O[C@H](C)C[C@H](N(C)C)[C@H]2O)[C@](C)(OC(=O)NN(CC)CCc2ccc(-c3ncccn3)cc2)C[C@@H](C)C(=O)[C@H](C)[C@H]2NC(=O)O[C@@]21C | 0.25 (≈ 0.288 µM) | 0.12 (≈ 0.138 µM) | 8 (≈ 9.23 µM) | 0.5 (≈ 0.577 µM) | 0.12 (≈ 0.138 µM) | 0.25 (≈ 0.288 µM) | 2 | – | –
CC[C@H]1OC(=O)[C@H](C)C(=O)[C@H](C)[C@@H](O[C@@H]2O[C@H](C)C[C@H](N(C)C)[C@H]2O)[C@](C)(OC(=O)NN(C)C/C=C/c2ccc(-c3ncccn3)cc2)C[C@@H](C)C(=O)[C@H](C)[C@H]2NC(=O)O[C@@]21C | 0.25 (≈ 0.289 µM) | 0.25 (≈ 0.289 µM) | 8 (≈ 9.25 µM) | 0.5 (≈ 0.578 µM) | 0.03 (≈ 0.0347 µM) | 0.5 (≈ 0.578 µM) | 0.5 | – | –
CC[C@H]1OC(=O)[C@H](C)C(=O)[C@H](C)[C@@H](O[C@@H]2O[C@H](C)C[C@H](N(C)C)[C@H]2O)[C@](C)(OC(=O)NN(C)CCc2ccc(-c3ncccn3)cc2F)C[C@@H](C)C(=O)[C@H](C)[C@H]2NC(=O)O[C@@]21C | 0.5 (≈ 0.574 µM) | 0.06 (≈ 0.0689 µM) | 4 (≈ 4.59 µM) | 0.5 (≈ 0.574 µM) | 0.06 (≈ 0.0689 µM) | 0.25 (≈ 0.287 µM) | 1 | 2.3 | > 20
